From the supplement of paper PMC11451515

System: P12-Ichikawa
Test: cell viability relative to DMSO control; higher = less cytotoxic
Settings: 48 h
Method in brief: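 NOMO1 or SEM cells were plated at 500 cells/well and P12-Ichikawa cells at 1000 cells/well in 1536-well plates (5 μl), after each leukemia line had been adapted for at least four passages in each medium. Pin dosing delivered library compounds in DMSO at 11 threefold concentrations, 47 μM to 0.79 nM. CellTiter-Glo One luminescence was read after 48 h at 37°C. Viability is reported as a per-plate percentage of DMSO wells, with cell-free wells as background.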

[1] = HPLM + 10% dialyzed FBS, 0.000781 µM
[2] = HPLM + 10% dialyzed FBS, 0.00234 µM
[3] = HPLM + 10% dialyzed FBS, 0.00702 µM
[4] = HPLM + 10% dialyzed FBS, 0.0211 µM
[5] = HPLM + 10% dialyzed FBS, 0.0632 µM
[6] = HPLM + 10% dialyzed FBS, 0.19 µM
[7] = HPLM + 10% dialyzed FBS, 0.569 µM
[8] = HPLM + 10% dialyzed FBS, 1.71 µM
[9] = HPLM + 10% dialyzed FBS, 5.12 µM
[10] = HPLM + 10% dialyzed FBS, 15.4 µM
[11] = HPLM + 10% dialyzed FBS, 46.1 µM
[12] = RPMI 5 mM glucose + 10% FBS, 0.000781 µM
[13] = RPMI 5 mM glucose + 10% FBS, 0.00234 µM
[14] = RPMI 5 mM glucose + 10% FBS, 0.00702 µM
[15] = RPMI 5 mM glucose + 10% FBS, 0.0211 µM
[16] = RPMI 5 mM glucose + 10% FBS, 0.0632 µM
[17] = RPMI 5 mM glucose + 10% FBS, 0.19 µM
[18] = RPMI 5 mM glucose + 10% FBS, 0.569 µM
[19] = RPMI 5 mM glucose + 10% FBS, 1.71 µM
[20] = RPMI 5 mM glucose + 10% FBS, 5.12 µM
[21] = RPMI 5 mM glucose + 10% FBS, 15.4 µM
[22] = RPMI 5 mM glucose + 10% FBS, 46.1 µM
[23] = RPMI 5 mM glucose + 10% dialyzed FBS, 0.000781 µM
[24] = RPMI 5 mM glucose + 10% dialyzed FBS, 0.00234 µM
[25] = RPMI 5 mM glucose + 10% dialyzed FBS, 0.00702 µM
[26] = RPMI 5 mM glucose + 10% dialyzed FBS, 0.0211 µM
[27] = RPMI 5 mM glucose + 10% dialyzed FBS, 0.0632 µM
[28] = RPMI 5 mM glucose + 10% dialyzed FBS, 0.19 µM
[29] = RPMI 5 mM glucose + 10% dialyzed FBS, 0.569 µM
[30] = RPMI 5 mM glucose + 10% dialyzed FBS, 1.71 µM
[31] = RPMI 5 mM glucose + 10% dialyzed FBS, 5.12 µM
[32] = RPMI 5 mM glucose + 10% dialyzed FBS, 15.4 µM
[33] = RPMI 5 mM glucose + 10% dialyzed FBS, 46.1 µM

Row | Compound | cell viability [1] [%] | cell viability [2] [%] | cell viability [3] [%] | cell viability [4] [%] | cell viability [5] [%] | cell viability [6] [%] | cell viability [7] [%] | cell viability [8] [%] | cell viability [9] [%] | cell viability [10] [%] | cell viability [11] [%] | cell viability [12] [%] | cell viability [13] [%] | cell viability [14] [%] | cell viability [15] [%] | cell viability [16] [%] | cell viability [17] [%] | cell viability [18] [%] | cell viability [19] [%] | cell viability [20] [%] | cell viability [21] [%] | cell viability [22] [%] | cell viability [23] [%] | cell viability [24] [%] | cell viability [25] [%] | cell viability [26] [%] | cell viability [27] [%] | cell viability [28] [%] | cell viability [29] [%] | cell viability [30] [%] | cell viability [31] [%] | cell viability [32] [%] | cell viability [33] [%]
1 | CCN(CC)C(=S)SSC(=S)N(CC)CC | 104 | 106 | 118 | 120 | 117 | 109 | 119 | 122 | 4.64 | 10.4 | 9.15 | 103 | 98.6 | 112 | 122 | 119 | 115 | 115 | 116 | 4.29 | 5.91 | 4.43 | 104 | 105 | 116 | 115 | 115 | 112 | 108 | 115 | 4 | 3.98 | 3.13
2 | C[C@@H](O)[C@@H]1[C@H]2[C@@H](C)\C(=C(/N2C1=O)C(=O)OCOC(=O)C(C)(C)C)SC3CN(C3)/C4=N/CCS4 | 95.2 | 107 | 110 | 111 | 112 | 108 | 111 | 112 | 112 | 116 | 109 | 78.9 | 102 | 108 | 100 | 109 | 104 | 107 | 111 | 107 | 111 | 103 | 97.3 | 106 | 109 | 118 | 107 | 108 | 109 | 102 | 111 | 111 | 111
3 | C[C@H]1C[C@H]2[C@@H]3CCC4=CC(=O)C=C[C@]4(C)[C@@]3(F)[C@@H](O)C[C@]2(C)[C@@]1(O)C(=O)CO | 114 | 119 | 118 | 109 | 98.1 | 78.3 | 73.9 | 71.9 | 71 | 65.5 | 65.8 | 121 | 126 | 116 | 108 | 99.8 | 73.1 | 65.1 | 60.1 | 51.7 | 55.6 | 43.5 | 110 | 119 | 116 | 101 | 81.1 | 59.9 | 56 | 48.2 | 46 | 41.5 | 42.5
4 | ClC1=CC(=CC=C1)N2CCN(CCCN3\N=C4\C=C/C=C\N4C3=O)CC2 | 118 | 120 | 120 | 134 | 128 | 132 | 134 | 142 | 140 | 134 | 139 |  |  |  |  |  |  |  |  |  |  |  |  |  |  |  |  |  |  |  |  |  | 
5 | CC(=O)OCC(=O)[C@@]12\N=C(C)/O[C@@H]1C[C@H]3[C@@H]4CCC/5=C/C(=O)/C=C\[C@]5(C)[C@H]4[C@@H](O)C[C@]23C | 103 | 111 | 108 | 113 | 103 | 114 | 108 | 105 | 80.6 | 73 | 63.9 | 102 | 123 | 116 | 114 | 85.1 | 115 | 115 | 94.1 | 85.5 | 62.8 | 55 | 93.6 | 102 | 112 | 107 | 104 | 111 | 102 | 86.9 | 67.2 | 57.7 | 49.4
6 | CC1=CC=CC=C1CN2C(=O)C/3=C(/CCN(CC4=CC=CC=C4)C3)N\5CC\N=C25 | 124 | 120 | 119 | 119 | 119 | 112 | 107 | 106 | 81.9 | 53.4 | 57.5 | 129 | 109 | 117 | 119 | 127 | 114 | 118 | 122 | 79.8 | 45.7 | 45.2 |  |  |  |  |  |  |  |  |  |  | 
7 | N=C(N)NC(=O)c1nc(Cl)c(N)nc1N | 106 | 116 | 114 | 127 | 120 | 116 | 130 | 120 | 59.8 | 16.9 | 9.59 |  |  |  |  |  |  |  |  |  |  |  | 104 | 114 | 115 | 124 | 115 | 126 | 130 | 128 | 116 | 56.1 | 17.5
8 | Cc1cc(Nc2nc(N[C@@H](C)c3ncc(F)cn3)ncc2Cl)n[nH]1 | 95.1 | 111 | 109 | 114 | 116 | 119 | 126 | 108 | 70.6 | 55 | 56.9 | 113 | 122 | 116 | 126 | 112 | 112 | 118 | 118 | 115 | 98 | 42.5 | 109 | 110 | 119 | 117 | 121 | 119 | 109 | 118 | 90.8 | 50.6 | 45.2
9 | CC(C)(C)C(=O)OCOP(=O)(COCCn1cnc2c(N)ncnc21)OCOC(=O)C(C)(C)C | 97.4 | 110 | 103 | 103 | 73.1 | 73.5 | 70.2 | 50.1 | 27.4 | 19 | 29.2 | 94.7 | 104 | 92.3 | 94.6 | 69.5 | 72.9 | 52.6 | 29.9 | 15 | 10.7 | 19.6 | 89.3 | 96.3 | 94.7 | 86.4 | 82.1 | 65 | 61.6 | 46.7 | 28.8 | 28.8 | 27.4
10 | CC(=O)C\1=C(/C)C2=CN=C(NC3=CC=C(C=N3)N4CCNCC4)N=C2N(C5CCCC5)C1=O | 111 | 121 | 119 | 114 | 114 | 110 | 107 | 93.1 | 88.5 | 77 | 28.9 | 119 | 116 | 124 | 113 | 113 | 119 | 98.5 | 78.6 | 72.6 | 66.6 | 61 | 122 | 117 | 127 | 117 | 118 | 114 | 104 | 83.4 | 76.9 | 73 | 45.6
11 | Oc1ccc(/C=C/c2cc(O)cc(O)c2)cc1 | 111 | 110 | 110 | 114 | 105 | 111 | 115 | 103 | 105 | 108 | 41.4 | 116 | 118 | 116 | 118 | 118 | 112 | 117 | 106 | 111 | 101 | 58.6 | 108 | 111 | 111 | 112 | 113 | 116 | 121 | 108 | 103 | 84.5 | 36.9
12 | COc1cc2c(Oc3ccc(NC(=O)C4(C(=O)Nc5ccc(F)cc5)CC4)cc3F)ccnc2cc1OCCCN1CCOCC1 | 86.3 | 90.5 | 87 | 88.8 | 81.2 | 81.8 | 78.5 | 38.7 | 8.94 | 8.26 | 5.1 | 83.8 | 90.3 | 84.8 | 83.5 | 85.7 | 74.3 | 77.1 | 59.5 | 10 | 11 | 4.54 | 86.2 | 82.9 | 86.6 | 89.3 | 85.4 | 80 | 88.2 | 44.6 | 14.7 | 12.4 | 4.34
13 | COC[C@@H](NC(C)=O)C(=O)NCc1ccccc1 | 117 | 101 | 107 | 118 | 118 | 110 | 110 | 111 | 113 | 104 | 12.8 | 94.8 | 100 | 112 | 112 | 113 | 121 | 111 | 110 | 106 | 110 | 53.5 | 105 | 118 | 106 | 110 | 96.9 | 109 | 108 | 116 | 104 | 109 | 59.8
14 | Oc1ccc(C2CCN(c3ccnc4ccccc34)CC2)cc1O | 102 | 118 | 111 | 113 | 112 | 117 | 110 | 106 | 70.8 | 67.4 | 63.4 | 112 | 110 | 109 | 125 | 122 | 107 | 113 | 110 | 71.5 | 55.1 | 48.5 | 96.5 | 113 | 106 | 110 | 107 | 112 | 111 | 97.5 | 59.2 | 45.8 | 40.8
15 | OCc1ccc(-c2nn(Cc3ccccc3)c3ccccc23)o1 | 118 | 109 | 103 | 107 | 113 | 108 | 104 | 93.8 | 96.5 | 105 | 73.7 | 117 | 119 | 128 | 126 | 113 | 115 | 117 | 104 | 116 | 113 | 60.9 | 109 | 110 | 108 | 112 | 100 | 108 | 113 | 103 | 102 | 98.9 | 49.5
16 | O=C(/C=C/c1c(C(=O)[O-])[nH]c2cc(Cl)cc(Cl)c12)Nc1ccccc1 | 106 | 111 | 105 | 103 | 116 | 114 | 115 | 116 | 113 | 111 | 109 | 98 | 105 | 107 | 106 | 108 | 110 | 112 | 120 | 104 | 107 | 106 | 103 | 99.5 | 107 | 110 | 107 | 108 | 103 | 107 | 66.2 | 108 | 113
